# Target: benzodiazepine receptors
# Experiment: displacement of radioactive labelled flunitrazepam from benzodiazepine receptors
# Assay type: binding
# Description: In the following Table, Ki values are shown for Examples 1-19 which include comparative compounds 1, 7, 9 and 11, which are not compounds of the subject invention but are structurally similar.
# The Ki value is determined from a concentration response curve obtained in the presence and absence of a fixed concentration of competitive […], flunitrazepam. […] The lower Ki value indicates a higher affinity for benzodiazepine.
row,Ki [nM],SMILES
1,39.7,"c1ccc2c(c1)OCc1c(-c3noc(C4CC4)n3)ncn1-2 [Example 1, 3-(5-Cyclopropyl-1,2,4-oxadiazol-3-yl)-4H-imidazo(5,1-c)(1,4)benzoxazine, reference compound]"
2,121,"O=C(OC1Oc2ccccc2-n2cnc(-c3noc(C4CC4)n3)c21)c1ccccc1 (stereo not shown) [Example 3, 3-(5-Cyclopropyl-1,2,4-oxadiazol-3-yl)-4-(benzoyloxy)-4H-imidazo(5,1-c)(1,4)benzoxazine]"
3,118,"OC1Oc2ccccc2-n2cnc(-c3noc(C4CC4)n3)c21 (stereo not shown) [Example 4, 3-(5-Cyclopropyl-1,2,4-oxadiazol-3-yl)-4-hydroxy-4H-imidazo(5,1-c)(1,4)benzoxazine]"
4,65.4,"Nc1ccc2c(c1)OCc1c(-c3noc(C4CC4)n3)ncn1-2 [Example 5, 7-Amino-3-(5-cyclopropyl-1,2,4-oxadiazol-3-yl)-4H-imidazo(5,1-c)(1,4)benzoxazine]"
5,59.6,"CCOC(=O)c1ncn2c1COc1ccccc1-2 [Example 7, Ethyl 4H-imidazo(5,1-c)(1,4)benzoxazine-3-carboxylate, reference compound]"
6,10000,"O=C(Nc1ccc2c(c1)OCc1c(-c3noc(C4CC4)n3)ncn1-2)C(F)(F)F [Example 8, 7-(Amino(trifluoroacetyl))-3-(5-cyclopropyl-1,2,4-oxadiazol-3-yl)-4H-imidazo(5,1-c)(1,4)benzoxazine]"
7,72.6,"c1ccc2c(c1)OCc1c(-c3nc(C4CC4)no3)ncn1-2 [Example 9, 3-(3-Cyclopropyl-1,2,4-oxadiazol-5-yl)-4H-imidazo(5,1-c)(1,4)benzoxazine, reference compound]"
8,656,"O=c1oc2ccccc2n2cnc(-c3noc(C4CC4)n3)c12 [Example 10, 3-(5-Cyclopropyl-1,2,4-oxadiazol-3-yl)-4-oxo-4H-imidazo(5,1-c)(1,4)benzoxazine]"
9,69.9,"CC(C)(C)OC(=O)c1ncn2c1COc1ccccc1-2 [Example 11, Tert-butyl 4H-imidazo(5,1-c)(1,4)benzoxazine-3-carboxylate, reference compound]"
10,114,"CC1Oc2ccccc2-n2cnc(-c3noc(C4CC4)n3)c21 (stereo not shown) [Example 12, 3-(5-Cyclopropyl-1,2,4-oxadiazol-3-yl)-4-methyl-4H-imidazo(5,1-c)(1,4)benzoxazine]"
11,8.56,"Fc1ccc2c(c1)OCc1c(-c3noc(C4CC4)n3)ncn1-2 [Example 13, 3-(5-Cyclopropyl-1,2,4-oxadiazol-3-yl)-7-fluoro-4H-imidazo(5,1-c)(1,4)benzoxazine]"
12,67.1,"CC1(C)Oc2ccccc2-n2cnc(-c3noc(C4CC4)n3)c21 [Example 14, 3-(5-Cyclopropyl-1,2,4-oxadiazol-3-yl)-4,4-dimethyl-4H-imidazo(5,1-c)(1,4)benzoxazine]"
13,4.59,"CCOC(=O)c1ncn2c1COc1cc(F)ccc1-2 [Example 15, Ethyl 7-fluoro-4H-imidazo(5,1-c)(1,4)benzoxazine-3-carboxylate]"
14,32.4,"CC(C)(C)OC(=O)c1ncn2c1COc1cc(F)ccc1-2 [Example 16, Tert-butyl 7-fluoro-4H-imidazo(5,1-c)(1,4)benzoxazine-3-carboxylate]"
15,443,"CC(C)(C)c1nc(-c2ncn3c2COc2cc(F)ccc2-3)no1 [Example 17, 3-(5-Tert-butyl-1,2,4-oxadiazol-3-yl)-7-fluoro-4H-imidazo(5,1-c)(1,4)benzoxazine]"
16,154,"CN(C)c1noc(-c2ncn3c2COc2cc(F)ccc2-3)n1 [Example 18, 3-(3-dimethylamino-1,2,4-oxadiazol-5-yl)-7-fluoro-4H-imidazo(5,1-c)(1,4)benzoxazine]"
17,4.6,"CC(C)(C)OC(=O)c1ncn2c1COc1c-2ccc(F)c1C#N [Example 19, Tert-butyl 6-cyano-7-fluoro-4H-imidazo(5,1-c)(1,4)benzoxazine-3-carboxylate]"

row,SMILES,Ki [nM]
1,"CC(C)(C)OC(=O)Nc1ccc2c(c1)OCc1c(-c3noc(C4CC4)n3)ncn1-2 [Example 2, 7-(Amino(t-butoxycarbonyl))-3-(5-cyclopropyl-1,2,4-oxadiazol-3-yl)-4H-imidazo(5,1-c)(1,4)benzoxazine]",10000
2,"CC(C)(C)OC(=O)Nc1ccc2c(c1)OC(OC(=O)c1ccccc1)c1c(-c3noc(C4CC4)n3)ncn1-2 (stereo not shown) [Example 6, 7-(Amino(t-butoxycarbonyl))3-(5-cyclopropyl-1,2,4-oxadiazol-3-yl)-4-(benzoyloxy)-4H-imidazo(5,1-c)(1,4)benzoxazine]",10000
